Data reported in patent US20200045967A1, “NOVEL TRIAZOLE DERIVATIVES” (Bayer CropScience Aktiengesellschaft, priority 2017, published 2020).

How the values were obtained:
[1] = Log P by HPLC on reversed phase columns (EEC directive 79/831 Annex V.A8); format: physicochemical; conditions: method [a]: LC-UV, acidic range, 0.1% formic acid in water and acetonitrile
Protocol: If more than one Log P value is available within the same method, all the values are given and separated by “+”. Calibration was done with straight-chain alkan2-ones (with 3 to 16 carbon atoms) with known Log P values (measurement of Log P values using retention times with linear interpolation between successive alkanones). Lambda-max-values were determined using UV-spectra from 200 nm to 400 nm and the peak values of the chromatographic signals.

[2] = tested on: Botrytis cinerea; assay: Example G1: in vivo preventive test on Botrytis cinerea (grey mould), comparison; conditions: rate of application 500 ppm; gherkin; evaluated 4 to 5 days after inoculation
Protocol: (§1) Young plants of gherkin were treated by spraying the active ingredient prepared as described above. Control plants were treated only with an aqueous solution of acetone/dimethyl sulfoxide/Tween®. After 24 hours, the plants were contaminated by spraying the leaves with an aqueous suspension of Botrytis cinerea spores.

[3] = tested on: Puccinia recondita; assay: Example G2: in vivo preventive test on Puccinia recondita (brown rust on wheat), comparison; conditions: evaluated 11 days after inoculation
Protocol: as §1, with “wheat” for “gherkin”, “Puccinia recondita” for “Botrytis cinerea”

[4] = tested on: Fusarium culmorum; assay: Example G3: in vitro test for the calculation of the ED50-value with microorganisms, Fusarium culmorum; format: cell-based; conditions: liquid culture, spore suspension, 4 to 7 days incubation, spectrometric measurement of mycelium growth
Protocol: • Solvent: DMSO • Culture medium: 14.6 g anhydrous D-glucose (VWR), 7.1 g mycological peptone (Oxoid), 1.4 g granulated yeast extract (Merck), supplemented with water to a total volume of 1 liter • Inoculum: spore suspension
Fungicides were solubilized in DMSO and the solution used to prepare the required range of concentrations. The final concentration of DMSO used in the assay was <1% by weight.
A spore suspension was prepared and diluted to the desired spore density.
Fungicides were evaluated for their ability to inhibit spore germination and mycelium growth in liquid culture assay. The compounds were added in the desired concentration to the culture medium with spores. After 4 to 7 days incubation, fungi-toxicity of compounds was determined by spectrometric measurement of mycelium growth. Inhibition of fungal growth was determined by comparing the absorbance values in wells containing the fungicides with the absorbance in control wells without fungicides.

[5] = tested on: Pyricularia oryzae; format: cell-based; conditions: liquid culture, spore suspension, 4 to 7 days incubation, spectrometric measurement of mycelium growth
[6] = tested on: Colletotrichum lindemuthianum; assay: Example G3: in vitro test for the calculation of the ED50-value with microorganisms, Colletotrichum lindemuthianum; format: cell-based; conditions: liquid culture, spore suspension, 4 to 7 days incubation, spectrometric measurement of mycelium growth
[7] = tested on: Sphaerotheca fuliginea; assay: Example G4: in vivo preventive Sphaerotheca test (cucumbers); conditions: evaluated 7 days after inoculation
Protocol: Solvent: 24.5 parts by weight of acetone • 24.5 parts by weight of dimethylacetamide Emulsifier: 1 part by weight of alkylaryl polyglycol ether To produce a suitable preparation of active compound, 1 part by weight of active compound is mixed with the stated amounts of solvent and emulsifier, and the concentrate is diluted with water to the desired concentration. To test for preventive activity, young plants are sprayed with the preparation of active compound at the stated rate of application. After the spray coating has dried on, the plants are inoculated with an aqueous spore suspension of Sphaerotheca fuliginea.

[8] = tested on: Septoria tritici; assay: Example G5: in vivo preventive Septoria tritici test (wheat); conditions: rate of application 500 ppm, evaluated 21 days after inoculation
Protocol: Solvent: 49 parts by weight of N,N-dimethylacetamide Emulsifier: 1 part by weight of alkylaryl polyglycol ether To produce a suitable preparation of active compound, 1 part by weight of active compound is mixed with the stated amounts of solvent and emulsifier, and the concentrate is diluted with water to the desired concentration. To test for preventive activity, young plants are sprayed with the preparation of active compound or active compound combination at the stated rate of application. After the spray coating has been dried, the plants are sprayed with a spore suspension of Septoria tritici.

[9] = tested on: Septoria tritici; assay: Example G6: in vivo curative Septoria tritici test (wheat); conditions: sprayed 48 hours after the incubation, rate of application 500 ppm, evaluated 21 days after inoculation
[10] = tested on: Septoria tritici; assay: Example G7: in vivo 5 days preventive Septoria tritici test (wheat); conditions: inoculated 5 days after spraying, rate of application 500 ppm, evaluated 21 days after inoculation
Protocol: Solvent: 49 parts by weight of N,N-dimethylacetamide Emulsifier: 1 part by weight of alkylaryl polyglycol ether To produce a suitable preparation of active compound, 1 part by weight of active compound is mixed with the stated amounts of solvent and emulsifier, and the concentrate is diluted with water to the desired concentration. To test for preventive and long-lasting activity, young plants are sprayed with a preparation of active compound or active compound combination at the stated rate of application.

CSc1ccc(Oc2ccc(C(C)(O)Cn3cncn3)c(C(F)(F)F)n2)cc1 (stereo not shown) [Compound I-03, 2-[6-(4-methylsulfanylphenoxy)-2-(trifluoromethyl)-3-pyridyl]-1-(1,2,4-triazol-1-yl)propan-2-ol]
chromatographic logP ([1]; compounds of formula (I)): 2.74 | Efficacy in % [2]: 90% | Efficacy in % ([3]; rate of application 100 ppm): 65% | Efficacy in % ([3]; rate of application 500 ppm): 88% | Fusarium culmorum ED50 value in ppm [4]: 0.83 ppm | Pyricularia oryzae ED50 value in ppm [5]: 1.7 ppm | Colletotrichum lindemuthianum ED50 value in ppm [6]: 0.38 ppm | Efficacy in % ([7]; rate of application 10 ppm): 78% | Efficacy in % ([7]; rate of application 100 ppm): 100% | Efficacy in % [8]: 78% | Efficacy in % [9]: 93% | Efficacy in % [10]: 71%

C#Cc1ccc(Oc2ccc(C(=O)Cn3cncn3)c(C(F)(F)F)n2)cc1 [VII-04, 1-[6-(4-ethynylphenoxy)-2-(trifluoromethyl)-3-pyridyl]-2-(1,2,4-triazol-1-yl)ethanone]
chromatographic logP ([1]; compounds of formula (VII)): 2.63

O=Cc1ccc(Oc2ccc(C(O)Cn3cncn3)c(C(F)(F)F)n2)cc1 (stereo not shown) [Compound I-01, 4-[[5-[1-hydroxy-2-(1,2,4-triazol-1-yl)ethyl]-6-(trifluoromethyl)-2-pyridyl]oxy]benzaldehyde]
chromatographic logP ([1]; compounds of formula (I)): 1.91

CSc1ccc(Oc2ccc(C(=O)Cn3cncn3)c(C(F)(F)F)n2)cc1 [VII-02, 1-[6-(4-methylsulfanylphenoxy)-2-(trifluoromethyl)-3-pyridyl]-2-(1,2,4-triazol-1-yl)ethanone]
chromatographic logP ([1]; compounds of formula (VII)): 2.92

O=Cc1ccc(Oc2ccc(C(=O)Cn3cncn3)c(C(F)(F)F)n2)cc1 [VII-01, 4-[[5-[2-(1,2,4-triazol-1-yl)acetyl]-6-(trifluoromethyl)-2-pyridyl]oxy]benzaldehyde]
chromatographic logP ([1]; compounds of formula (VII)): 2.12

CSc1ccc(Oc2ccc(C(C)(O)Cn3cncn3)c(C(F)(F)F)c2)cc1 (stereo not shown) [Comparative compound, reference compound]
Efficacy in % [2]: 69% | Efficacy in % ([3]; rate of application 100 ppm): 25% | Efficacy in % ([3]; rate of application 500 ppm): 88% | Fusarium culmorum ED50 value in ppm [4]: 2.6 ppm | Pyricularia oryzae ED50 value in ppm [5]: 5.6 ppm | Colletotrichum lindemuthianum ED50 value in ppm [6]: 0.83 ppm | Efficacy in % ([7]; rate of application 10 ppm): 28% | Efficacy in % ([7]; rate of application 100 ppm): 100% | Efficacy in % [8]: 22% | Efficacy in % [9]: 57% | Efficacy in % [10]: 29%

CSc1ccc(Oc2ccc(C(O)Cn3cncn3)c(C(F)(F)F)n2)cc1 (stereo not shown) [Compound I-02, 1-[6-(4-methylsulfanylphenoxy)-2-(trifluoromethyl)-3-pyridyl]-2-(1,2,4-triazol-1-yl)ethanol]
chromatographic logP ([1]; compounds of formula (I)): 2.59

CSc1ccc(Oc2ccc(C(C)=O)c(C(F)(F)F)n2)cc1 [Compound V-02, 1-[6-(4-methylsulfanylphenoxy)-2-(trifluoromethyl)-3-pyridyl]ethanone]
chromatographic logP ([1]; compounds of formula (V)): 3.7

CC(=O)c1ccc(Oc2ccc(C3OCCO3)cc2)nc1C(F)(F)F [Compound V-01, 1-[6-[4-(1,3-dioxolan-2-yl)phenoxy]-2-(trifluoromethyl)-3-pyridyl]ethanone]
chromatographic logP ([1]; compounds of formula (V)): 2.98

ON=Cc1ccc(Oc2ccc(C(O)Cn3cncn3)c(C(F)(F)F)n2)cc1 (stereo not shown) [Compound I-04, 4-[[5-[1-hydroxy-2-(1,2,4-triazol-1-yl)ethyl]-6-(trifluoromethyl)-2-pyridyl]oxy]benzaldehyde Oxime]
chromatographic logP ([1]; compounds of formula (I)): 2.26
